Data from ChEMBL document CHEMBL3390836, “Mannich- and LedererManasse-based analogues of the natural product S-(+)-curcuphenol as cancer proliferation and migration inhibitors” (Medchemcomm, 2012).

What was measured:
Assay type in all cases: functional
SF-268 = experiment: Cytotoxicity against human SF268 cells after 48 hrs by SRB assay; details: SF-268, 48 h; for CC50: read-out: LC50 (the source's name)
SNB-75 = experiment: Cytotoxicity against human SNB75 cells assessed as cell growth at 10^-4 M after 48 hrs by SRB assay relative to control; details: SNB-75, 48 h, read-out: Activity
TK-10 = experiment: Cytotoxicity against human TK10 cells after 48 hrs by SRB assay; details: TK-10, 48 h
NCI-H322M = experiment: Cytotoxicity against human NCI-H322M cells assessed as cell growth at 10^-7 M after 48 hrs by SRB assay relative to control; details: read-out: Activity
SN12C [1] = experiment: Cytotoxicity against human SN12C cells after 48 hrs by SRB assay
U-251 = experiment: Cytotoxicity against human U251 cells after 48 hrs by SRB assay; details: U-251, 48 h
[2] = Cytotoxicity against human OVCAR3 cells after 48 hrs by SRB assay; details: OVCAR-3, 48 h
A498 [3] = experiment: Cytotoxicity against human A498 cells assessed as cell growth at 10^-7 M after 48 hrs by SRB assay relative to control; details: A498, 48 h, read-out: Activity
COLO 205 = experiment: Cytotoxicity against human COLO205 cells assessed as cell growth at 10^-7 M after 48 hrs by SRB assay relative to control; details: COLO 205, 48 h, read-out: Activity
[4] = Cytotoxicity against human OVCAR3 cells assessed as cell growth at 10^-4 M after 48 hrs by SRB assay relative to control; details: OVCAR-3, 48 h, read-out: Activity
ACHN [5] = experiment: Cytotoxicity against human ACHN cells assessed as cell growth at 10^-4 M after 48 hrs by SRB assay relative to control; details: read-out: Activity
HCC 2998 = experiment: Cytotoxicity against human HCC2998 cells assessed as cell growth at 10^-4 M after 48 hrs by SRB assay relative to control; details: HCC 2998, 48 h, read-out: Activity
SF-295 [6] = experiment: Cytotoxicity against human SF295 cells assessed as cell growth at 10^-4 M after 48 hrs by SRB assay relative to control; details: SF-295, 48 h, read-out: Activity
K562 = experiment: Cytotoxicity against human K562 cells assessed as cell growth at 10^-8 M after 48 hrs by SRB assay relative to control; details: K562, 48 h, read-out: Activity
SN12C [7] = experiment: Cytotoxicity against human SN12C cells assessed as cell growth at 10^-4 M after 48 hrs by SRB assay relative to control; details: read-out: Activity
MCF7 = experiment: Cytotoxicity against human MCF7 cells assessed as cell growth at 10^-7 M after 48 hrs by SRB assay relative to control; details: MCF7, 48 h, read-out: Activity
HL-60(TB) = experiment: Cytotoxicity against human HL-60(TB) cells after 48 hrs by SRB assay; details: HL-60, 48 h; for CC50: read-out: LC50 (the source's name)
786-0 = experiment: Cytotoxicity against human 786-0 cells after 48 hrs by SRB assay; details: 786-0, 48 h
[8] = Cytotoxicity against human OVCAR4 cells assessed as cell growth at 10^-7 M after 48 hrs by SRB assay relative to control; details: OVCAR-4, 48 h, read-out: Activity
RXF 393 = experiment: Cytotoxicity against human RXF393 cells assessed as cell growth at 10^-4 M after 48 hrs by SRB assay relative to control; details: RXF 393, 48 h, read-out: Activity
SF-295 [9] = experiment: Cytotoxicity against human SF295 cells assessed as cell growth at 10^-8 M after 48 hrs by SRB assay relative to control; details: SF-295, 48 h, read-out: Activity
[10] = Cytotoxicity against human SKOV3 cells after 48 hrs by SRB assay; details: SK-OV-3, 48 h
ACHN [11] = experiment: Cytotoxicity against human ACHN cells assessed as cell growth at 10^-8 M after 48 hrs by SRB assay relative to control; details: read-out: Activity
MOLT-4 [12] = experiment: Cytotoxicity against human MOLT4 cells after 48 hrs by SRB assay; details: MOLT-4, 48 h
NCI-H226 = experiment: Cytotoxicity against human NCI-H226 cells assessed as cell growth at 10^-6 M after 48 hrs by SRB assay relative to control; details: NCI-H226, 48 h, read-out: Activity
T47D = experiment: Cytotoxicity against human T47D cells assessed as cell growth at 10^-8 M after 48 hrs by SRB assay relative to control; details: read-out: Activity
IGROV-1 [13] = experiment: Cytotoxicity against human IGROV1 cells assessed as cell growth at 10^-6 M after 48 hrs by SRB assay relative to control; details: IGROV-1, 48 h, read-out: Activity
SW-620 = experiment: Cytotoxicity against human SW620 cells assessed as cell growth at 10^-4 M after 48 hrs by SRB assay relative to control; details: SW-620, 48 h, read-out: Activity
SF-295 [14] = experiment: Cytotoxicity against human SF295 cells assessed as cell growth at 10^-6 M after 48 hrs by SRB assay relative to control; details: SF-295, 48 h, read-out: Activity
A498 [15] = experiment: Cytotoxicity against human A498 cells assessed as cell growth at 10^-6 M after 48 hrs by SRB assay relative to control; details: A498, 48 h, read-out: Activity
HOP-62 = experiment: Cytotoxicity against human HOP62 cells assessed as cell growth at 10^-4 M after 48 hrs by SRB assay relative to control; details: HOP-62, 48 h, read-out: Activity
MOLT-4 [16] = experiment: Cytotoxicity against human MOLT4 cells assessed as cell growth at 10^-7 M after 48 hrs by SRB assay relative to control; details: MOLT-4, 48 h, read-out: Activity
[17] = Cytotoxicity against human Hs 578T cells assessed as cell growth at 10^-8 M after 48 hrs by SRB assay relative to control; details: read-out: Activity
[18] = Cytotoxicity against human HCT116 cells after 48 hrs by SRB assay; details: HCT-116, 48 h; for CC50: read-out: LC50 (the source's name)
IGROV-1 [19] = experiment: Cytotoxicity against human IGROV1 cells assessed as cell growth at 10^-4 M after 48 hrs by SRB assay relative to control; details: IGROV-1, 48 h, read-out: Activity
IGROV-1 [20] = experiment: Cytotoxicity against human IGROV1 cells after 48 hrs by SRB assay; details: IGROV-1, 48 h
NCI-H460 = experiment: Cytotoxicity against human NCI-H460 cells after 48 hrs by SRB assay; details: NCI-H460, 48 h; for CC50: read-out: LC50 (the source's name)

In the case of `CC(C)=CCC[C@H](C)c1ccc(C)c2c1OCN(CC1CCNCC1)C2`, the GI50 (SF-268) is reported as 16.6 µM, the TGI (SF-268) is reported as 33.3 µM and the CC50 (SF-268) is reported as 66.7 µM. For the same compound, the growth at 100 µM (SNB-75) was -99%, the GI50 (TK-10) was 14.4 µM and the LC50 (TK-10) was 59.5 µM. The TGI (TK-10) was 29.3 µM, the growth at 0.1 µM (NCI-H322M) was 99% and the GI50 (SN12C [1]) was 14.2 µM. The LC50 (SN12C [1]) was 58.7 µM, the TGI (SN12C [1]) was 28.9 µM and the GI50 (U-251) was 2.75 µM. For the same compound, the LC50 (U-251) was 31.6 µM, the TGI (U-251) was 7.61 µM and the GI50 [2] was 15.6 µM. It also gave an LC50 [2] of 62.1 µM, a TGI [2] of 31.1 µM and a growth at 0.1 µM (A498 [3]) of 82%. It also gave a growth at 0.1 µM (COLO 205) of 108%, a growth at 100 µM [4] of -84% and a growth at 100 µM (ACHN [5]) of -89%. It also gave a growth at 100 µM (HCC 2998) of -94%, a growth at 100 µM (SF-295 [6]) of -67% and a growth at 0.01 µM (K562) of 97%. It also gave a growth at 100 µM (SN12C [7]) of -88%, a growth at 0.1 µM (MCF7) of 97% and a GI50 (HL-60(TB)) of 3.9 µM. It also gave a TGI (HL-60(TB)) of 18.9 µM, a CC50 (HL-60(TB)) of 59.3 µM and a GI50 (786-0) of 12.1 µM. It also gave an LC50 (786-0) of 56.9 µM, a TGI (786-0) of 26.3 µM and a growth at 0.1 µM [8] of 102%. It also gave a growth at 100 µM (RXF 393) of -93%, a growth at 0.01 µM (SF-295 [9]) of 92% and a GI50 [10] of 16.7 µM. It also gave an LC50 (concentration killing 50% of cells) [10] of 57.8 µM, a TGI [10] of 31.1 µM and a growth at 0.01 µM (ACHN [11]) of 100%. For the same compound, the GI50 (MOLT-4 [12]) was 14.6 µM, the LC50 (MOLT-4 [12]) was greater than 100 µM and the TGI (MOLT-4 [12]) was 43.3 µM. The growth at 1 µM (NCI-H226) was 101%, the growth at 0.01 µM (T47D) was 95% and the growth at 1 µM (IGROV-1 [13]) was 106%. For the same compound, the growth at 100 µM (SW-620) was -87%, the growth at 1 µM (SF-295 [14]) was 87% and the growth at 1 µM (A498 [15]) was 102%. It also gave a growth at 100 µM (HOP-62) of -94%, a growth at 0.1 µM (MOLT-4 [16]) of 104% and a growth at 0.01 µM [17] of 98%. For the same compound, the GI50 [18] was 7.17 µM, the TGI [18] was 21.7 µM and the CC50 [18] was 56.3 µM. It also gave a growth at 100 µM (IGROV-1 [19]) of -86%, a GI50 (IGROV-1 [20]) of 16.6 µM and an LC50 (concentration killing 50% of cells) (IGROV-1 [20]) of 62.5 µM. The TGI (IGROV-1 [20]) was 32.2 µM, the GI50 (NCI-H460) was 5.36 µM and the TGI (NCI-H460) was 16.6 µM. It also gave a CC50 (NCI-H460) of 43.1 µM.
With `CC(C)=CCC[C@H](C)c1ccc(C)c(CNCC2CCNCC2)c1O` the GI50 (SF-268) was 7.12 µM, the TGI (SF-268) was greater than 25 µM and the CC50 (SF-268) was greater than 25 µM. For the same compound, the growth at 100 µM (SNB-75) was -32%, the GI50 (TK-10) was 0.0551 µM and the LC50 (TK-10) was greater than 25 µM. The TGI (TK-10) was 17.8 µM, the growth at 0.1 µM (NCI-H322M) was 94% and the GI50 (SN12C [1]) was 12.9 µM. It also gave an LC50 (SN12C [1]) greater than 25 µM, a TGI (SN12C [1]) greater than 25 µM and a GI50 (U-251) of 3.72 µM. For the same compound, the LC50 (U-251) was 15.9 µM, the TGI (U-251) was 7.69 µM and the GI50 [2] was 8.44 µM. It also gave an LC50 [2] greater than 25 µM, a TGI [2] greater than 25 µM and a growth at 0.1 µM (A498 [3]) of 74%. The growth at 0.1 µM (COLO 205) was 101%, the growth at 100 µM [4] was 3% and the growth at 100 µM (ACHN [5]) was -34%. For the same compound, the growth at 100 µM (HCC 2998) was -94%, the growth at 100 µM (SF-295 [6]) was -73% and the growth at 0.01 µM (K562) was 103%. The growth at 100 µM (SN12C [7]) was 39%, the growth at 0.1 µM (MCF7) was 97% and the GI50 (HL-60(TB)) was 5.02 µM. The TGI (HL-60(TB)) was 10.2 µM, the CC50 (HL-60(TB)) was 20.7 µM and the GI50 (786-0) was 5.01 µM. For the same compound, the LC50 (786-0) was greater than 25 µM, the TGI (786-0) was 11.5 µM and the growth at 0.1 µM [8] was 103%. It also gave a growth at 100 µM (RXF 393) of -24%, a growth at 0.01 µM (SF-295 [9]) of 96% and a GI50 [10] of 6.82 µM. It also gave an LC50 (concentration killing 50% of cells) [10] greater than 25 µM, a TGI [10] greater than 25 µM and a growth at 0.01 µM (ACHN [11]) of 96%. The LC50 (MOLT-4 [12]) was greater than 25 µM, the growth at 1 µM (NCI-H226) was 86% and the growth at 0.01 µM (T47D) was 101%. It also gave a growth at 1 µM (IGROV-1 [13]) of 98%, a growth at 100 µM (SW-620) of -82% and a growth at 1 µM (SF-295 [14]) of 86%. For the same compound, the growth at 1 µM (A498 [15]) was 79%, the growth at 100 µM (HOP-62) was -74% and the growth at 0.1 µM (MOLT-4 [16]) was 96%. For the same compound, the growth at 0.01 µM [17] was 94%, the GI50 [18] was 5.08 µM and the TGI [18] was 12.4 µM. The CC50 [18] was greater than 25 µM, the growth at 100 µM (IGROV-1 [19]) was 24% and the GI50 (IGROV-1 [20]) was 9.4 µM. The LC50 (concentration killing 50% of cells) (IGROV-1 [20]) was greater than 25 µM, the TGI (IGROV-1 [20]) was greater than 25 µM and the GI50 (NCI-H460) was 4.45 µM. The TGI (NCI-H460) was 9.23 µM and the CC50 (NCI-H460) was 19.1 µM.
